Non-standard residues stand in square brackets, D forms with d. Residues, ends and D or L forms follow the SMILES beside them. No end group written: not given here. hPhe = N[C@@H](CCc1ccccc1)C(=O)O; NMeD = CN[C@@H](CC(=O)O)C(=O)O; NMeL = CN[C@@H](CC(C)C)C(=O)O; NMeV = CN[C@H](C(=O)O)C(C)C
Each compound was assayed against T1, human ribonucleotide reductase (hRR) (Homo sapiens, UniProt P23921) (assay: Inhibition of Human Ribonucleotide Reductase Assay). Conditions: Hela cell extract; conversion of (14C)CDP to (14C)dCDP; text of Example 3; read-out: IC50.
T1 construct: Preparation of cell extract containing human ribonucleotide reductase (hRR); endogenous in cells; host or cells: HeLa cells (ATCC CCL 2.2); extract cleared with streptomycin sulphate, 50% ammonium sulphate cut, diafiltered
T1 sequence (P23921 1-792): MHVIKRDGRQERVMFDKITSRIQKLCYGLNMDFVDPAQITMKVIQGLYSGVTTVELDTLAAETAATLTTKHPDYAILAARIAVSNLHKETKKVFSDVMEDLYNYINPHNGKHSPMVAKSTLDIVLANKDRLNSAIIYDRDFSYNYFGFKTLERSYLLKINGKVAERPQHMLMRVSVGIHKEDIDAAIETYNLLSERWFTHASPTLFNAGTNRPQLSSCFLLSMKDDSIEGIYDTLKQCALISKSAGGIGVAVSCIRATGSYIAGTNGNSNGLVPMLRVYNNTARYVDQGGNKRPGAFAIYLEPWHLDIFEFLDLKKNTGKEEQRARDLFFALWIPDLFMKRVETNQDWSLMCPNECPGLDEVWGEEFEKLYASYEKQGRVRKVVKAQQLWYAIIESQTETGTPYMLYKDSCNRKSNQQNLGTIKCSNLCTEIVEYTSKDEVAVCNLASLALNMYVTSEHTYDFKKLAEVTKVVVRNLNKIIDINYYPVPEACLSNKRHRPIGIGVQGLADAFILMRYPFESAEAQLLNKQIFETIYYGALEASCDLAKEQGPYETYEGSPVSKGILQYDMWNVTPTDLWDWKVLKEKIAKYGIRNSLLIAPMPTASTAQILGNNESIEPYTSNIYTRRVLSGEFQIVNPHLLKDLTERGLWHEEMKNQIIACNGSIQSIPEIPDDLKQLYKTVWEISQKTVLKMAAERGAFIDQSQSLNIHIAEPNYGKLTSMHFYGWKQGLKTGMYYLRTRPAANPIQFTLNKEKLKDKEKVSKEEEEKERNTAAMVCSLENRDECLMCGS
Format: biochemical
Description: Inhibition of Human Ribonucleotide Reductase Assay
(a) Cell line: Hela cells (ATCC CCL 2.2), human epitheloid carcinoma, cervix.
(b) Cell culture: Cells were incubated in a medium consisting of Iscove's Modified Dulbecco Medium, pH 7.2-7.4 (Gibco Canada Inc., Burlington, ON, Canada) supplemented with 10% by volume of fetal calf serum, heat inactivated (Gibco Canada Inc.), 1 millimolar (mM) of sodium pyruvate, 100 units/ml of penicillin G, 100 μg/ml of streptomycin and 2 mM of L-glutamine. The incubation was done in a 1 l spinner flask at 37° C. under a mixture of 5% CO2 in air. Cell-containing media (75% of culture volume) was withdrawn semicontinuously at 24-48 h intervals. Fresh media was added each time to replace withdrawn media. Final cell density at harvest was 1-2×10^6 cells/ml.
(c) Preparation of cell extract containing human ribonucleotide reductase (hRR)
The harvested culture media obtained above was subjected to low speed centrifugation. The resulting cell pellet was processed according to the following steps. (All steps were performed at 4° C. unless noted otherwise.) […]
(a) Standard Reaction Mixture […]
The activity of RR was quantitated by following the conversion of radiolabeled cytidine diphosphate to radiolabeled deoxycytidine diphosphate, i.e. (^14 C)CDP to (^14 C)dCDP. The amount of cell extract utilized in the assay was that which gave a linear response between enzyme concentration and CDP conversion (ca. 200 μg of protein per assay).
After addition of the cell extract, the assay mixture was incubated at 37° C. for 30 min. The reaction was stopped by immersing the vessel containing the assay mixture in boiling water for 4 min. Nucleotides in the supernatant were then converted to nucleosides by the addition of excess Crotalus adamenteus snake venom (ca. 20 μl of a preparation of 40 mg/ml of the venom in an aqueous solution of 14 mM tris(hydroxymethyl)aminomethane (pH 8.8) and 46.5 mM MgCl2), followed by incubating the resulting mixture for 60 min at 37° C. The enzymatic reaction was stopped by immersing the vessel containing the reaction mixture in boiling waster for 6 min. Thereafter, the mixture is centrifuged at 10,000 rpm on a clinical centrifuge for 5 min.
The resulting free nucleosides, cytidine (C) and deoxycytidine (dC), in the supernatant were separated by thin layer chromatography on polyethyleneimine-cellulose plates pretreated with boric acid. Elution of 5 μl samples was accomplished using a solution of ethanol/20 mM aqueous ammonium formate (1:1), pH 4.7. Quantitation of radiolabel migrating as C and dC was carried out using radioanalytical imaging equipment (AMBIS Systems Inc., San Diego, CA, USA). substrate conversion was calculated as: [formula]
A unit of ribonucleotide reductase activity is defined as that amount which reduces one nmole of CDP/minute under the conditions described above. Activity was calculated from substrate conversion using the following relationship: [formula]
The conversion factor for the Hela assay was 0.108. Specific activity was expressed as units/mg of protein in the incubation mixture.
The peptides of formula 1 were tested at a minimum of three concentrations. IC50 's were estimated from graphs plotting the results for each peptide, the IC50 being the concentration of the peptide in micromoles (μM) producing 50% of the maximal inhibition of the enzyme.

Compound | IC50
Ac-FTLDADF [Example 2, AcPhe-Thr-Leu-Asp-Ala-Asp-Phe-OH] | 38 µM

Same assay, conditions: Hela cell extract; table of Example 4; read-out: IC50

Compound | IC50
Ac-TENSFTLDADF [AcThr--Glu--Asn--Ser--Phe--Thr--Leu--Asp--Ala--Asp--Phe--OH] | 83 µM
H-TENSFTLDADF-OH [H--Thr--Glu--Asn--Ser--Phe--Thr--Leu--Asp--Ala--Asp--Phe--OH] | 95 µM
H-VISNSTENSFTLDADF-OH [H--Val--Ile--Ser--Asn--Ser--Thr--Glu--Asn--Ser--Phe--Thr--Leu--Asp--Ala--Asp--Phe--OH] | 49 µM
H-NSTENSFTLDADF-OH [H--Asn--Ser--Thr--Glu--Asn--Ser--Phe--Thr--Leu--Asp--Ala--Asp--Phe--OH] | 62 µM
Ac-NSFTLDADF-OH [Ac--Asn--Ser--Phe--Thr--Leu--Asp--Ala--Asp--Phe--OH] | 33 µM

Same assay, conditions: inhibition of human RR assay; list after the table; unit μM; read-out: IC50 (shown in parenthesis)

Compound | IC50
Ac-FTFNEDF [AcPhe-Thr-Phe-Asn-Glu-Asp-Phe-OH] | 150 µM
CC(=O)N[C@@H](Cc1ccccc1)C(=O)N[C@H](C(=O)N[C@@H](CC(C)C)C(=O)N[C@@H](CC(=O)O)C(=O)N[C@@H](C)C(=O)N(C)[C@@H](CC(=O)O)C(=O)N[C@@H](Cc1ccccc1)C(=O)O)[C@@H](C)O [AcPhe-Thr-Leu-Asp-Ala-N-Me-Asp-Phe-OH] (Ac-FTLDA[NMeD]F-OH) | 46 µM
H-SPTENSFTLDADF-OH [H-Ser-Pro-Thr-Glu-Asn-Ser-Phe-Thr-Leu-Asp-Ala-Asp-Phe-OH] | 29 µM
CC(=O)N[C@@H](Cc1ccccc1)C(=O)N(C)[C@H](C(=O)N[C@@H](CC(C)C)C(=O)N[C@@H](CC(=O)O)C(=O)N[C@@H](C)C(=O)N[C@@H](CC(=O)O)C(=O)N[C@@H](Cc1ccccc1)C(=O)O)C(C)C [AcPhe-N-Me-Val-Leu-Asp-Ala-Asp-Phe-OH] (Ac-F[NMeV]LDADF-OH) | 48 µM
Ac-FTLDEDF [AcPhe-Thr-Leu-Asp-Glu-Asp-Phe-OH] | 28 µM
CC(=O)N[C@@H](Cc1ccccc1)C(=O)N[C@H](C(=O)N[C@@H](CC(C)C)C(=O)N[C@H](CC(=O)O)C(=O)N[C@@H](C)C(=O)N[C@@H](CC(=O)O)C(=O)N[C@@H](Cc1ccccc1)C(=O)O)[C@@H](C)O [AcPhe-Thr-Leu-D-Asp-Ala-Asp-Phe-OH] (Ac-FTL[dD]ADF-OH) | 200 µM
Ac-FTLGADF [AcPhe-Thr-Leu-Gly-Ala-Asp-Phe-OH] | 150 µM
Ac-FTLFADF [AcPhe-Thr-Leu-Phe-Ala-Asp-Phe-OH] | 73 µM
CC(=O)N[C@@H](Cc1ccccc1)C(=O)N[C@H](C(=O)N(C)[C@@H](CC(C)C)C(=O)N[C@@H](CC(=O)O)C(=O)N[C@@H](C)C(=O)N[C@@H](CC(=O)O)C(=O)N[C@@H](Cc1ccccc1)C(=O)O)[C@@H](C)O [AcPhe-Thr-N-Me-Leu-Asp-Ala-Asp-Phe-OH] (Ac-FT[NMeL]DADF-OH) | 23 µM
Ac-FTLNADF [AcPhe-Thr-Leu-Asn-Ala-Asp-Phe-OH] | 31 µM
H-SSPTENSFTLDADF-OH [H-Ser-Ser-Pro-Thr-Glu-Asn-Ser-Phe-Thr-Leu-Asp-Ala-Asp-Phe-OH] | 26 µM
Ac-FTLQADF [AcPhe-Thr-Leu-Gln-Ala-Asp-Phe-OH] | 120 µM
CC(=O)N[C@@H](Cc1ccccc1)C(=O)N[C@H](C(=O)N[C@@H](CC(C)C)C(=O)N[C@@H](CC(=O)O)C(=O)N[C@@H](C)C(=O)N[C@H](CC(=O)O)C(=O)N[C@@H](Cc1ccccc1)C(=O)O)[C@@H](C)O [AcPhe-Thr-Leu-Asp-Ala-D-Asp-Phe-OH] (Ac-FTLDA[dD]F-OH) | 280 µM
Ac-FTLDVDF [AcPhe-Thr-Leu-Asp-Val-Asp-Phe-OH] | 39 µM
H-PTENSFTLDADF-OH [H-Pro-Thr-Glu-Asn-Ser-Phe-Thr-Leu-Asp-Ala-Asp-Phe-OH] | 41 µM
CC(=O)N[C@@H](Cc1ccccc1)C(=O)N[C@H](C(=O)N[C@@H](CC(C)C)C(=O)N[C@@H](CC(=O)O)C(=O)N[C@@H](C)C(=O)N[C@@H](CC(=O)O)C(=O)N[C@@H](CCc1ccccc1)C(=O)O)[C@@H](C)O [AcPhe-Thr-Leu-Asp-Ala-Asp-homoPhe-OH] (Ac-FTLDAD[hPhe]-OH) | 58 µM
CC(=O)N[C@@H](Cc1ccccc1)C(=O)N[C@H](C(=O)N[C@@H](CC(C)C)C(=O)N[C@@H](CC(=O)N(C)C)C(=O)N[C@@H](C)C(=O)N[C@@H](CC(=O)O)C(=O)N[C@@H](Cc1ccccc1)C(=O)O)[C@@H](C)O [AcPhe-Thr-Leu-Asp(NMe2)-Ala-Asp-Phe-OH] (Ac-FTLD(NMe2)ADF-OH) | 58 µM
CC(=O)N[C@@H](Cc1ccccc1)C(=O)N[C@H](C(=O)N[C@@H](CC(C)C)C(=O)N[C@@H](CC(=O)O)C(=O)N[C@H](C)C(=O)N[C@@H](CC(=O)O)C(=O)N[C@@H](Cc1ccccc1)C(=O)O)[C@@H](C)O [AcPhe-Thr-Leu-Asp-D-Ala-Asp-Phe-OH] (Ac-FTLD[dA]DF-OH) | 460 µM
